Data reported in patent US12606534B2, “Method for the treatment of keratin materials using acid, ester or amide C-glycoside derivatives, and cosmetic composition containing same” (L'OREAL, priority 2016, dated 2026).

System: normal human melanocytes
Assay: Depigmenting activity (reduction of melanin production) in normal human melanocytes in vitro
Format: cell-based
Conditions: compound at 100 μM, 72 hours incubation, optical density (amount of melanin)
Procedure: The depigmenting activity (reduction of melanin production) of compounds of formula (I) was measured by assay in normal human melanocytes in vitro as follows.
First, normal human melanocytes are cultured and distributed in a multiple-well plate.
After 24 hours, the culture medium was replaced with a medium containing the compounds of formula (I) to be evaluated. The cells were incubated for 72 hours before measuring the final optical density, which measures the amount of melanin produced by the melanocytes. The measurement was calibrated and the compounds were tested at 100 μM.
Various test runs were performed and the results are collated in the following tables.

Question: For `CC(=O)OC[C@H]1OC(CC(=O)O)[C@H](OC(C)=O)[C@@H](OC(C)=O)[C@@H]1OC(C)=O` (stereo partly drawn) [Compound 1], which “% depigmentation at 100 μM, Run 3” value (Run 3) is on record?
Answer: 24%

Question: With `C[C@@H]1OC(CC(=O)N(C)C)[C@H](O)[C@H](O)[C@H]1O` (stereo partly drawn) [Compound 4] as the compound, how does the “% depigmentation at 100 μM, Run 1” value (Run 1) read?
Answer: 15%

Question: How did the “% depigmentation at 100 μM, Run 2” value (Run 2) turn out when `O=C(O)C[C@@H]1O[C@H](CO)[C@@H](O)[C@H](O)[C@H]1O` [Compound 2] was run?
Answer: 29%
